Data: PMC11267380, “USP25 Elevates SHLD2‐Mediated DNA Double‐Strand Break Repair and Regulates Chemoresponse in Cancer” (Advanced Science, 2024)
Blank lines part the entries; values can stand above or below the molecule they belong to.

Experiments:
[1] = tested on: RKO cells; experiment: CCK8 survival assay, control, USP25 knockdown and SHLD2-depleted RKO cells; format: cell-based; conditions: 5-Fu (0, 0.1, 0.5, 1, 3 µM) or cisplatin (0, 0.1, 0.5, 1, 2, 5 µM)
Protocol: For long‐term proliferation, cells were seeded in triplicate in each well of 96‐well plates at a density of 1000 cells per well. After 24 h of culture, the cells were treated with the indicated doses of regents or peptides and incubated at 37 °C for 72 h. Subsequently, the medium was changed to a fresh medium containing cell counting kit‐8 solution (Dojindo, CK04), and the cells were placed in the incubator for an additional 1–2 h. The absorbance was measured at 450 nm using the SpectraMax M5 reader (Molecular Devices).
(§1) a) HEK293T cells stably expressing control or USP25 shRNA were untreated and treaded with etopside at the indicated time point. Cells were lysed and lysates was performed with the indicated antibodies. b-c) Representative foci images and quantification of RPA32 (b) and RAD51 (c) were obtained in U2OS cells stably expressing control or USP25 shRNA with or without IR treatment (2Gy). n>80 in each group. d) USP25 was knocked down in ER-AsiSI U2OS cells by shRNA, and cell lysates were analyzed using the indicated antibodies. e) Schematic representation of Taqman qPCR primer design for measurement of DSB% at AsiSI sites located on chromosome1(Chr.1). The primer pairs of DNA resection are across BamHI restriction sites are marked by red arrows. ER-AsiSI U2OS cells stably expressing control and USP25 shRNA were treated with 300 nM 4- hydroxytamoxifen (4-OHT) for 4 h or mock treated and genomic DNA was then extracted and digested with BamHI overnight. The percentages of ssDNA at various distances (364nt, 1754nt and 3564nt) were measured by qPCR. f-h) Control and USP25 knockdown RKO cells transfected short interfering RNAs (siRNA) against SHLD2 were subjected to survival assays for CCK8 assay in response to IR (0, 1,1.5,2,2.5,3Gy), 5-Fu (0, 0.1,0.5,1,3µM) or cisplatin(0, 0.1,0.5,1,2,5µM). Statistical analysis was performed using two-way ANOVA followed by a Turkey’s multiple comparison test (b,c,e,f,g,h) .

[2] = tested on: RKO and SW620 cells; experiment: CCK8 survival assay, USP25 knockdown USP25-high colon cancer cells; format: cell-based; conditions: RKO: cisplatin (0, 0.5, 1, 3 µM), 5-Fu (0, 0.1, 0.5, 1, 3 µM), SW620: 5-Fu (0, 0.1, 0.5, 1, 3 µM), 72 h
Protocol: For long-term proliferation, cells were seeded in triplicate in each well of 96-well plates at a density of 1000 cells per well. After 24 h of culture, the cells were treated with the indicated doses of regents or peptides and incubated at 37 °C for 72 h. Subsequently, the medium was changed to a fresh medium containing cell counting kit-8 solution (Dojindo, CK04), and the cells were placed in the incubator for an additional 1-2 h. […] a) The mRNA expression levels of TRIM25, HECTD3, NEDD4L and WWP2 in human normal colon tissue samples (n=41) and colorectal adenocarcinoma tissue samples (n=286 COAD patients) from the Ualcan database were analyzed. b) The protein expression levels of USP25 were measured in HEK293T cells that stably expressed TRIM25 shRNA. c) NHEJ repair capacity of control or TRIM25 knockdown cells were subjected using a reporter assay. d-g) Immunoblot of USP25 in the RKO cells stably expressing control and USP25 shRNA. […] Statistical analysis was performed using t-test (a) or one-way ANOVA followed by a Turkey's multiple comparison test (c) or two-way ANOVA followed by a Turkey's multiple comparison test ([…]) .

[3] = tested on: NHEJ; experiment: NHEJ reporter assay, cells treated with AZ1; format: cell-based; conditions: compared with USP25 depletion (decreased NHEJ); Figure S1h
[4] = tested on: HR; experiment: HR reporter assay, cells treated with AZ1; format: cell-based; conditions: compared with USP25 depletion (increased HR); Figure S1i
[5] = target: T1, USP25 (Homo sapiens, UniProt Q9UHP3); experiment: Surface Plasmon Resonance (SPR) analysis of peptide binding; conditions: result in words; for binding affinity for USP25: Figure 7a, Figure S7a-c
T1 sequence (Q9UHP3 1-1055): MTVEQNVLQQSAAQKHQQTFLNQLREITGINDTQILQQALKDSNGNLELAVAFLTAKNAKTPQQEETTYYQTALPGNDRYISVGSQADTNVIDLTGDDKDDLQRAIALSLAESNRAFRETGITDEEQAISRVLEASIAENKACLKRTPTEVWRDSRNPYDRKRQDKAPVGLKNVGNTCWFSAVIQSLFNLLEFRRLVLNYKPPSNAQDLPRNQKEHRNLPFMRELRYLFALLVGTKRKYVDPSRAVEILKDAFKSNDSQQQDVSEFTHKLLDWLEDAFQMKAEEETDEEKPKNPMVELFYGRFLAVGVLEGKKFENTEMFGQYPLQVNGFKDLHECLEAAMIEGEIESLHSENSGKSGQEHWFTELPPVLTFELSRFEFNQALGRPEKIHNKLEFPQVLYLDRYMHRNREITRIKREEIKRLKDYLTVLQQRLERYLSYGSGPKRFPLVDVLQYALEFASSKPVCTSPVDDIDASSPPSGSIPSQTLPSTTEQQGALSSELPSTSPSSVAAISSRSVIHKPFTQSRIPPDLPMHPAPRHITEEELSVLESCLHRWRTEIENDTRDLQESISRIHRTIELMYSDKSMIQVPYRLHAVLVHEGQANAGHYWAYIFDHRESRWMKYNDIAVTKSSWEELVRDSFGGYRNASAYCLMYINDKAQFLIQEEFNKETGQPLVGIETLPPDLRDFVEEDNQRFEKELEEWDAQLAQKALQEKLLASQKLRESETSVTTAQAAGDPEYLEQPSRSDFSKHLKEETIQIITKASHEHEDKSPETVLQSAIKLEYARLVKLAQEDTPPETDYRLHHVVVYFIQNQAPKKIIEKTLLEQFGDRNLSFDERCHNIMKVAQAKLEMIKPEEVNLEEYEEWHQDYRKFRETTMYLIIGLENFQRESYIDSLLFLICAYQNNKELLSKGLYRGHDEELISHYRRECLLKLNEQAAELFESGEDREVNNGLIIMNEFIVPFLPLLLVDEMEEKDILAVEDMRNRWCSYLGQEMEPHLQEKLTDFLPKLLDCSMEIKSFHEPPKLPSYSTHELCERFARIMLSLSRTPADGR
Protocol: Figure 7 Disturbing the USP25 and SHLD2 interaction counteracts colon cancer progression. a) The kinetic interaction of SH‐4 and USP25 was assessed using surface plasmon resonance (SPR) analyses. b) Co‐immunoprecipitation assays (Co‐IP) were performed to detect the interaction between USP25 and SHLD2 in HEK293T cells treated with indicated peptides. c) NHEJ repair capacity of HEK293T cells treated with indicated peptides was subjected using a reporter assay. d) Representative micrographs of GFP‐SHLD2 foci and e) quantification were shown following irradiation and indicated peptide treatment. Cells were stained with anti‐GFP antibodies. f) The highest‐scoring Dock model of the SH‐4 and USP25 complex is shown. Left: the surface of SH‐4 (green) and USP25 complex. Right: the 3D structure of SH‐4 (green) and USP25 complex. g) The effect of indicated peptides(20 µM) in combination with 5‐Fu (0, 0.1, 0.5, 1, 3 µM) on the chemosensitivity of SW620 cells was determined. h‐l) Xenograft tumor formation by SW620 cells in mice that were untreated or treated with PSH‐4 and 5‐Fu or each treatment alone was analyzed. A h) schematic model, i) representative tumor images, j) tumor volume over time, k) tumor weight, and l) HE or Ki67 staining assay were presented (n = 5 animals). m) A schematic model for generating patient‐derived tumor xenografts of colorectal adenocarcinoma (COAD) was provided. n) Western blots showing USP25 levels in COAD patient tumors (patients 1–3) were presented. o) Representative immunohistochemistry (IHC) micrographs showing USP25 expression in COAD patient‐derived tumors were provided. p–s) The PDX xenograft in mice that were untreated or treated with PSH‐4([…] ) and 5‐Fu ([…] ) or each treatment alone were analyzed. Representative p) tumor images, q) tumor volume over time, r) tumor weight, and s) HE or Ki67 staining assay were presented (n = 6 animals). Statistical analysis was performed using one‐way ANOVA followed by a Turkey's multiple comparison test (c,e,k,r) or two‐way ANOVA followed by a Turkey's multiple comparison test (g,j,q). TEXT PRINTED IN THE PICTURE: (a) SH-4: KD (M) 2.082*10^-5; kd (1/s) 0.00484 DOUBTS OF THE COPYIST ABOUT THIS PICTURE: SH-4, KD (M): the digits 2.082 and the exponent -5 are in small print, the 8 could be a 6 or a 3 / SH-4, kd (1/s): 0.00484 is in small print, the 8 could be a 6 or a 3
The amino acid (aa) sequences of peptides covering the SHLD2-binding region from USP25 are shown. The kinetic interaction of peptides and USP25 was determined by surface plasmon resonance (SPR) analyses.

[6] = tested on: RPA32 phosphorylation of Ser4/Ser8 in HEK293T cells; experiment: RPA32 phosphorylation immunoblot after etoposide, USP25-depleted cells; format: cell-based; conditions: HEK293T stably expressing control or USP25 shRNA, Figure S2a
Protocol: as §1, with “Statistical analysis was performed using two-way ANOVA followed by a Turkey’s multiple comparison test (b,c,e,f,g,h) .” left out

[7] = target: T2, USP25 (as used for SPR) (UniProt Q9UHP3 1-1055); experiment: SPR
T2 chain: T1 sequence (Q9UHP3 1-1055)

[8] = target: T2, USP25 (as used for SPR); experiment: SPR

Molecule: N.N.[Cl][Pt][Cl] [cisplatin]
sensitization by USP25 knockdown ([1]; Figure S2f-h): sensitized cells to IR, 5‐Fu, and cisplatin treatment | sensitization by USP25 knockdown in SHLD2-depleted cells ([1]; SHLD2 siRNA): didn't further lead cells to sensitize to these treatments | sensitization by USP25 knockdown, USP25-high cell lines [2]: sensitized the cells to IR, cisplatin, and 5‐Fu treatment

Molecule: OCCNCc1cc(Br)ccc1OCc1ccc(F)c(C(F)(F)F)c1 [AZ1]
NHEJ after USP25 inhibition [3]: led to similar results as depletion of USP25 in cells | HR after USP25 inhibition [4]: led to similar results as depletion of USP25 in cells

binding affinity for USP25 [5]: showed the binding affinity for USP25 | relative binding affinity for USP25 among SH-1 to SH-4 [5]: higher affinity
Molecule: MSVADPWKKIQLLYS [SH‐1, peptide designed based on the structure of the N‐terminus (aa 1–200) of SHLD2]

binding affinity for USP25 [5]: showed the binding affinity for USP25
Molecule: FTEEEKYQKLLSENK [SH‐3, peptide designed based on the structure of the N‐terminus (aa 1–200) of SHLD2]

binding affinity for USP25 [5]: showed the binding affinity for USP25
Molecule: EKQHKNLENYKVPESI [SH‐2, peptide designed based on the structure of the N‐terminus (aa 1–200) of SHLD2]

binding affinity for USP25 [5]: showed the binding affinity for USP25 | relative binding affinity for USP25 among SH-1 to SH-4 [5]: higher affinity
Molecule: KNFNTNLFQLGHKCA [SH‐4, peptide designed based on the structure of the N‐terminus (aa 1–200) of SHLD2]

Molecule: COc1cc([C@@H]2c3cc4c(cc3[C@@H](O[C@@H]3O[C@@H]5CO[C@@H](C)O[C@H]5[C@H](O)[C@H]3O)[C@H]3COC(=O)[C@H]23)OCO4)cc(OC)c1O [etoposide]
RPA32 phosphorylation of Ser4/Ser8 on USP25 depletion [6]: promoted RPA32 phosphorylation of Ser4/Ser8

koff [7]: 0.00484 s⁻¹ | Kd [8]: 20.8 µM
Molecule: KNFNTNLFQLGHKCA [SH-4 peptide]
